Several values for one entry are separate records, joined by “and”; a condition that tells them apart may be missing. Equal values may be shown once. Read-outs that look alike come from different tables or passages of the source.
Tests used:
[1] = system: LNCaP tumors; test: LNCaP xenograft in SCID mice, Q6DX2 (Example 24); type: in vivo, CB17.SCID mice; set-up: key to Tumor Weight: tumor weight in mg
Procedure: The mean tumor weight was approximately 200 mg at Day 0. […] Studies were terminated at Day 60.

[2] = system: HT-29 (colon carcinoma) cells; test: cells; type: cell-based, human; conditions: 48 hours total incubation, read-out: IC50 HT29
Procedure: Adherent cells, LNCaP (prostate carcinoma), HT-29 (colon carcinoma) and PC-3 (prostate carcinoma), were cultured in DMEM media containing 10% heat inactivated fetal calf serum (FCS). On the day of the study the cells were detached from the plate with a trypsin solution. The collected cells were washed and resuspended at a concentration of 0.25×10^6 cells/ml in DMEM containing 10% FCS. 100 μl of cell suspension were added to 96 well plates and the plates were incubated for 3 hours to allow the cells to adhere. […] The plates were then incubated for 24 hours, pulsed with 10 μl of a 100 μCi/ml ^3H-thymidine and incubated for an additional 24 hours (total incubation time 48 hours). The plates were harvested using a 96 well Harvester (Packard Instruments) and counted on a Packard Top Count Counter. Four parameter logistic curves were fitted to the ^3H-thymidine incorporation as a function of drug molarity using Prism software to determine IC50 values.

[3] = in vivo; conditions: female, ICR, mouse, iv, 10 umol/kg
Procedure: (§5) Plasma was obtained from three individual animals in each group at 5 minutes, 1, 2, 4, or 6 hr.

[4] = system: CD10 transfected CHO cells, Clone #8; test: 3H thymidine proliferation assay, CD10 transfected CHO Clone #8
Procedure: (§6) The fully assembled coding region was sub-cloned into a mammalian expression vector, downstream of the hCMV-MIE promoter. DNA sequence analysis confirmed sequence identity with the coding sequence of human CD10 (Genbank accession number Y00811). The expression plasmid was linearized and stably transfected into CHO—S cells. CD10 expressing transfectant clones were selected under 500 ug/mL of hygromycin and screened by flow cytometry for cell-surface CD10 expression using a commercially available anti-CD10-FITC antibody.

[5] = system: CD10 transfected CHO cells, DB4; test: 3H thymidine proliferation assay, CD10 transfected CHO DB4
Procedure: as §6

[6] = system: CD10 transfected CHO cells, Clone #7; test: 3H thymidine proliferation assay, CD10 transfected CHO Clone #7
Procedure: as §6

[7] = Repeat-dose MTD in tumor bearing mice; type: in vivo; conditions: mouse, in vivo
Procedure: (§1) In repeat-dose studies in tumor bearing mice, groups of ten mice were dosed with various amounts of prodrug for a total of five doses at either five day or 1 week intervals. […] Thus, the conclusion remains the same in that the prodrugs permit a much greater amount of therapeutic agent to be delivered to the body as a whole and to the vicinity of the target cell.
(§2) As would be expected, when a dose similar to the single-dose MTD (75 mg/kg) (See Example 16) was administered as a repeat-dose it was less well tolerated. […] All treated animals lost weight progressively throughout the study, while the vehicle control group gained up to 12% of the mean initial body weight. (FIG. 20). Two treated animals in the high dose group were terminated due to signs of toxicity, with body weight loss of greater that 20% of their initial weight. […] Thus cumulative toxicity resulted from repeat-dosing at these relatively high dose-levels.

[8] = system: LS174t tumor bearing mice; test: Repeat-dose MTD in tumor bearing mice; type: in vivo
Procedure: as §1, §2

[9] = system: prostate carcinoma LNCaP tumors; conditions: for mean tumor weight of all mice when terminated: calculated, not shown; for Cancer Endpt.: tumor 1.5 g
Procedure: The mice were weighed and tumors were measured (by caliper) at least once a week prior to start of dosing (Day 0), then twice a week during the study. Immediately before the start of dosing (Study Day −2 to Day 0), mice were randomized to various groups based on the weight of the tumors. […] Mice were euthanized after the tumors reached a cutoff weight of 1.5 g (cancer endpoint), or when mice suffered over 25% weight loss (toxic endpoint). Studies were terminated at Day 60.

[10] = system: normal mice; conditions: mouse, in vivo; cited from earlier work
[11] = system: normal mice; test: Single dose Maximum Tolerated Dose (MTD) study, 28 days; type: in vivo; conditions: for single-dose MTD, fold higher than doxorubicin alone: 28 days
Procedure: (§3) The mice were observed daily for 28 days and body weights measured twice weekly.
as §3
(§4) In the single dose Maximum Tolerated Dose (MTD) studies, groups of normal mice were administered intravenous bolus doses of the prodrug. The mice were observed daily for 28 days and body weights measured twice weekly. The MTD was estimated to be equal to the highest dose that produced no death in mice after 28 days.

[12] = as above; type: in vivo, mice; conditions: mouse, in vivo; intravenous bolus, normal mice, 28 days
Procedure: as §3, §3, §4

[13] = system: colorectal carcinoma LS174t xenograft; test: LS174t xenograft efficacy; type: in vivo, nude mice; conditions: for Mean Day of Survival (MDS): animals whose tumors reached 1.5 g prior to Day 60; for long-term survivors: up to 60 days
Description: There were 4 and 2 long-term survivors in the low and high dose groups, respectively, compared with 0 in the vehicle control group.

[14] = mouse, in vivo, iv, 100 umol/kg
Procedure: as §5

[15] = system: Parental CHO cells; test: Conversion to Leu-Dox or Gly-Dox in cell supernatants, parental CHO; type: cell-based, Chinese Hamster; conditions: 10 μM, 37° C.
Procedure: To directly ask the question of whether the CD10 expressing cells were capable of cleaving the prodrug, supernatants from CD10 transfected or parental CHO cells treated with the compounds were collected. […] After incubation for 1, 4, and 24 hours, an aliquot of each supernatant was transferred to a 96-well plate and frozen at −20° C. Samples were subsequently thawed and analyzed by reversed phase HPLC (4.6×50 mm 21 TSK Super-ODS column) with fluorescence detection after dilution with 3 volumes of acetonitrile, removal of precipitate by centrifugation, and further dilution into 3 volumes of water. When incubated with Suc-βAla-Leu-Ala-Leu-Dox, there was no detectable metabolism to Leu-Dox observed with the parental cell line while clone 8 (CD10 transfected) generated significant levels of Leu-Dox from Suc-βAla-Leu-Ala-Leu-Dox (Table 27).

## COc1cccc2c1C(=O)c1c(O)c3c(c(O)c1C2=O)C[C@@](O)(C(=O)CO)C[C@@H]3O[C@H]1C[C@H](N)[C@H](O)[C@H](C)O1 [Doxorubicin, reference compound]
[1]; 3 mg/kg Q6DX2
  Toxic Endpt.: 1
[1]; 3 mg/kg Q6DX2, Day 12
  % Tumor Growth Inhibition: 21 ± 8%
  Tumor Weight: 328 ± 35
[1]; 3 mg/kg Q6DX2, groups of ten
  Survivor (day 22): 9
[1]; 4 mg/kg Q6DX2
  Toxic Endpt.: 2
[1]; 4 mg/kg Q6DX2, Day 12
  % Tumor Growth Inhibition: 26 ± 6%
  Tumor Weight: 310 ± 25
[1]; 4 mg/kg Q6DX2, groups of ten
  Survivor (day 22): 8
[2]; Homo sapiens, HT-29
  IC50: 52 nM
[3]
  AUC(0-t): 3.3 µM·h
[4]; Cricetulus griseus, CHO, read-out: IC50 Clone #8
  IC50: 570 nM
[5]; Cricetulus griseus, CHO, read-out: IC50 DB4
  IC50: 310 nM
[6]; Cricetulus griseus, CHO, read-out: IC50 Clone #7
  IC50: 640 nM
[7]; Q 7D × 5, tumor bearing mice
  MTD at 60 days: 4 mg/kg
[8]; Q 7D × 5
  Repeat Dose MTD, doxorubicin equivalent dose (in parentheses): 4 (4) mg/kg
[8]; total of 5 doses
  RD-MTD as total exposure after 5 doses: 20 mg/kg doxorubicin equivalent
[9]; 5 mg/kg Q7DX5
  mean tumor weight of all mice when terminated: 967 mg
  Cancer Endpt.: 0
[9]; 5 mg/kg i.v. Q7DX5
  % Tumor Growth Inhibition D14: D14: 32 ± 16%
  Survivor (day 60): 1
  Tumor Weight D14: D14: 567 ± 77
[10]
  MTD of doxorubicin alone, estimated from the standard safe efficacious dose: 4 mg/kg

## CC[C@H](C)[C@H](NC(=O)CCC(=O)O)C(=O)N[C@@H](C)C(=O)N[C@@H](CC(C)C)C(=O)N[C@H]1C[C@H](O[C@H]2C[C@](O)(C(=O)CO)Cc3c(O)c4c(c(O)c32)C(=O)c2c(OC)cccc2C4=O)O[C@@H](C)[C@H]1O [Suc-Ile-Ala-Leu-Dox]
[2]
  IC50: 47000 nM
[11]
  single-dose MTD, fold higher than doxorubicin alone: at least 16 fold
[11]; intravenous bolus, normal mice
  28-day single-dose Maximum Tolerated Dose (MTD): > 117 mg/kg
[12]
  MTD: ≥ 66 mg/kg

## CC[C@H](C)[C@H](NC(=O)CCNC(=O)CCC(=O)O)C(=O)N[C@@H](C)C(=O)N[C@@H](CC(C)C)C(=O)N[C@H]1C[C@H](O[C@H]2C[C@](O)(C(=O)CO)Cc3c(O)c4c(c(O)c32)C(=O)c2c(OC)cccc2C4=O)O[C@@H](C)[C@H]1O [Suc-βAla-Ile-Ala-Leu-Dox]
[13]; 53 mg/kg Q5DX5
  Mean Day of Survival (MDS): 29.7 days
[13]; 53 mg/kg i.v. Q5DX5, groups of ten
  long-term survivors: 4
[13]; 68 mg/kg Q5DX5
  Mean Day of Survival (MDS): 23.4 days
[13]; 68 mg/kg i.v. Q5DX5, groups of ten
  long-term survivors: 2
[4]; CD10 transfected CHO cells
  IC50 difference to Dox: ~16 fold
[4]; Clone #8, ratio of IC50
  Ratio Suc-β-Ala-Ile-Ala-Leu/Dox: 15
[5]; DB4, ratio of IC50
  Ratio Suc-β-Ala-Ile-Ala-Leu/Dox: 14
[11]; 100 mg/kg, Day 21, groups of five
  animals euthanized due to treatment-related toxicity: two
[11]; 125 mg/kg, Day 14, groups of five
  animals euthanized due to treatment-related toxicity: four
[11]
  single-dose MTD, fold higher than doxorubicin alone: approximately 10 fold
[12]
  MTD: 40 mg/kg
[6]; Clone #7, ratio of IC50
  Ratio Suc-β-Ala-Ile-Ala-Leu/Dox: 17
[7]; total of 5 doses, read-out: RD-MTD as total exposure after 5 doses
  MTD: ~150 mg/kg
[8]; 68 mg/kg Q5DX5, groups of ten
  animals terminated due to signs of toxicity: Two

## COc1cccc2c1C(=O)c1c(O)c3c(c(O)c1C2=O)C[C@@](O)(C(=O)CO)C[C@@H]3O[C@H]1C[C@H](NC(=O)[C@H](CC(C)C)NC(=O)[C@H](C)NC(=O)[C@H](CC(C)C)NC(=O)CCNC(=O)CCC(=O)O)[C@H](O)[C@H](C)O1 [Suc-βAla-Leu-Ala-Leu-Dox]
[1]; 40 mg/kg Q6DX2
  Toxic Endpt.: 0
[1]; 40 mg/kg Q6DX2, Day 12
  Tumor Weight: 244 ± 25
[1]; 40 mg/kg Q6DX2, groups of ten
  Survivor (day 22): 10
[1]; 50 mg/kg Q6DX2
  Toxic Endpt.: 5
[1]; 50 mg/kg Q6DX2, Day 12
  Tumor Weight: 168 ± 29
[1]; 50 mg/kg Q6DX2, groups of ten
  Survivor (day 22): 5
[1]; 62 mg/kg Q6DX2
  Toxic Endpt.: 6
[1]; 62 mg/kg Q6DX2, Day 12
  Tumor Weight: 196 ± 22
[1]; 62 mg/kg Q6DX2, groups of ten
  Survivor (day 22): 4
[14]
  AUC(0-t): 806 µM·h
[15]
  Conversion rate to Leu-Dox or Gly-Dox: 0 mM/h
  Percent Conversion/Hour to Leu-Dox or Gly-Dox: 0 Percent Conversion/Hour
[9]; 59 mg/kg Q7DX5
  mean tumor weight of all mice when terminated: 232 mg
  Cancer Endpt.: 0
[9]; 59 mg/kg Q7DX5, over 25% weight loss
  Toxic Endpt.: 7 of 7 and 7
[9]; 59 mg/kg i.v. Q7DX5
  % Tumor Growth Inhibition D14: D14: 53 ± 15 %
  % Tumor Growth Inhibition D21: D21: 66 ± 15 %
  Survivor (day 60): 0
  Tumor Weight D14: D14: 391 ± 70
  Tumor Weight D21: D21: 318 ± 67
